These molecules were tested on S. typhi GFP reporter counter-screen, fluorescence, 4 h (assay: inhibitors in S. typhi counter-screen strain, dose response, counter-screen for PhoP regulon inhibitor project, fluorescence, 4 h (AID 2384)).

SMILES	IC50
C[C@H]1c2cccc(O)c2C(O)=C2C(=O)[C@]3(O)C(O)=C(C(N)=O)C(=O)[C@@H](N(C)C)C3[C@@H](O)C21 (stereo partly drawn)	0.68 µM
CO[C@H]1C=CO[C@@]2(C)Oc3c(C)c(O)c4c(O)c(c(C=NN5CCN(C)CC5)c(O)c4c3C2=O)NC(=O)C(C)=CC=C[C@H](C)[C@H](O)[C@@H](C)[C@@H](O)[C@@H](C)[C@H](OC(C)=O)[C@@H]1C	35.4 µM
Nc1c2ccccc2nc2ccccc12	39.5 µM
Clc1ccc2c(c1)C(N1CCNCC1)Cc1ccccc1S2 (stereo not drawn)	35.1 µM
CCOc1ccc(Nc2c3ccccc3nc3ccccc23)cc1	19.6 µM
CC(c1cccnc1)N(CCN(C)C)C(=O)Nc1ccc(Cl)c(Cl)c1 (stereo not drawn)	98.4 µM
CCn1cc(C(=O)O)c(=O)c2cc(F)c(N3CCN(C(=S)Nc4ccccc4OC)CC3)cc21	41.1 µM
O=c1c2ccccc2nc(N/N=C/c2c(O)ccc3ccccc23)n1O	16.2 µM
CN1CCN(C2Cc3cc(Cl)ccc3Sc3cc(F)ccc32)CC1 (stereo not drawn)	22.2 µM
O=C(Nc1ccncc1)Nc1ccc(Cl)cc1	85.2 µM
O=S1(=O)CC=C(CSC(=S)NC2CCS(=O)(=O)C2)C1 (stereo not drawn)	39.1 µM
C/C(=N\NC(=O)c1cccc(Br)c1)c1ccccn1	31.6 µM
Cc1ccc(N/C(=C\C(=O)c2ccccc2)C(=O)O)cc1	74.4 µM
Cc1ccc(C(=O)Sc2cccccc2=O)cc1	6.31 µM
Cc1nc2ccccc2c(N)c1C(=O)/C=C/c1ccccc1	101 µM
Cc1nc(N)c(Cc2ccc(Cl)cc2Cl)c(N)n1	30.4 µM
CN(Cc1ccccc1)CC(O)COc1ccc(CNCCCOc2cccnc2)cc1 (stereo not drawn)	53.3 µM
CO[C@H]1C=CO[C@@]2(C)Oc3c(C)c(O)c4c(O)c(c5c(c4c3C2=O)NC2(CCN(CC(C)C)CC2)N=5)=NC(=O)C(C)=CC=C[C@H](C)[C@H](O)[C@@H](C)[C@@H](O)[C@@H](C)[C@H](OC(C)=O)[C@@H]1C	2.19 µM
O=C(CNC(=O)c1cccc(F)c1)N/N=C/c1ccc([N+](=O)[O-])s1	36.9 µM
OC1(c2ccc(Cl)cc2)CCN(Cc2c[nH]c3ccccc23)CC1	29.8 µM
CN(C)c1ccc(O)c2c1CC1CC3[C@@H](N(C)C)C(=O)C(C(N)=O)=C(O)[C@]3(O)C(=O)C1=C2O (stereo partly drawn)	3.9 µM
O/N=C/c1ccc(OCc2ccccc2)c(Cl)c1	103 µM
S=C(Nc1cc(Cl)cc(Cl)c1)NC1CCN(Cc2ccccc2)CC1	82 µM
OCCCCNCc1ccc(OCc2ccccc2Cl)cc1	86 µM
CCCCOc1ccc(C(=O)NNC(=S)NC(=O)CC)cc1	33.6 µM
O=C(O)c1cc2c(cn1)[nH]c1ccccc12	92.6 µM

SMILES	IC50
COC(=O)N/N=C/c1c[n+]([O-])c2ccccc2[n+]1[O-]	92.1 µM
CN1CCN(C(c2ccc(Cl)cc2)c2cc(Cl)c3cccnc3c2O)CC1 (stereo not drawn)	19.7 µM
CCCCCOc1ccc(CSC2=NCCN2)cc1[N+](=O)[O-]	32 µM
CN1C(=O)N2CN(C3CCCCC3)CN3C(=O)N(C)C1C23 (stereo not drawn)	110 µM
CN1C(=O)NC(c2ccc(O)cc2)C(C(=O)c2cccs2)C1(O)C(F)(F)F (stereo not drawn)	19.1 µM
O=C(Nc1ccccc1)Oc1ccc[nH]c1=O	52.9 µM
CCN1CCCC1Cn1cnc2c([nH]c3ccc(Cl)cc32)c1=O (stereo not drawn)	118 µM
O=C(O)c1ccc(N2C(=O)CSC2=S)cc1	137 µM
CN1CCN(C2=Cc3ccccc3Sc3cc(F)c(F)cc32)CC1	37.3 µM
C#CCOCCOCCOCCNc1nc(N2CCN(C(=O)C(Cc3cc4ccccc4[nH]3)n3cc(C(N)C(C)CC)nn3)CC2)nc(N2CCN(C(=O)C(Cc3cc4ccccc4[nH]3)n3cc(C(N)C(C)CC)nn3)CC2)n1 (stereo not drawn)	134 µM
N=c1c2c(n(Cc3ccc(Cl)cc3Cl)c3c1CCC3)CCCC2	37.5 µM
O=C1c2cccc3cccc(c23)C(=O)C1(O)O	17 µM
O=C(CSc1nc2ccccc2s1)N/N=C/c1cc([N+](=O)[O-])ccc1O	60.8 µM
NC1=NC[C@H](c2ccccc2)N1CCc1cc(C(F)(F)F)cc(C(F)(F)F)c1	31.1 µM
CCCCCCCCCCCCCCCC[n+]1ccc(C(N)=O)cc1	9.85 µM
Oc1c(Br)cc(Br)cc1C=NCc1ccccc1	40.4 µM
CCCCCCCCCn1c2c(c(=N)c3c1CCC3)CCC2	10.6 µM
CN1CCC(OC(=O)c2ccc(Br)cc2)CC1	18.2 µM
c1ccc(Nc2nc(NCc3ccco3)c3ccccc3n2)cc1	21.5 µM
O=C(/C=C/c1ccco1)NC(=S)NNC(=O)c1ccco1	90.8 µM
COc1cc(/C=C2/C(=O)NN(c3ccc(C)c(Cl)c3)C2=O)cc([N+](=O)[O-])c1O	74.6 µM
CCC(/C=C1\Sc2ccc(OC)cc2N1CCO)=C\c1sc2ccc(OC)cc2[n+]1CCO	32 µM
CN(C)CCCN1c2ccccc2Sc2ccccc21	40.1 µM
CC1CCC(C(C)C)C(OC(=O)Cn2c(-c3ccc(Cl)cc3)[n+](C)c3ccccc32)C1 (stereo not drawn)	38.3 µM
Oc1cccc(Nc2nc(NCC3CCCO3)c3ccccc3n2)c1 (stereo not drawn)	38.1 µM
OCCNc1nc(Nc2ccc(Br)cc2)nc2ccccc12	15.9 µM

SMILES	IC50
O=C(N/N=C\c1cccc([N+](=O)[O-])c1O)C1COc2ccccc2O1 (stereo not drawn)	11.7 µM
Cc1cccc2c1Sc1ccc(Cl)cc1CC2N1CCNCC1 (stereo not drawn)	71.8 µM
C#CCOCCOCCOCCNc1nc(N2CCN(C(=O)[C@H](Cc3ccc(O)cc3)n3cc([C@@H](N)CC(C)C)nn3)CC2)nc(N2CCN(C(=O)[C@H](Cc3cc4ccccc4[nH]3)n3cc([C@@H](N)CC(C)C)nn3)CC2)n1	41.8 µM
COc1ccccc1CNCCc1ccc(F)cc1	33 µM
CC(C)[C@@H]1CC[C@@H](C)C[C@H]1OC(=O)C[n+]1cc(-c2ccc(Cl)cc2)n2c1CCCCC2	74.9 µM
C#CCOCCOCCOCCNc1nc(N2CCN(C(=O)CCCCCCCCCCNC(=O)[C@H](CCCCN)n3cc(C[C@@H](C)CC)nn3)CC2)nc(N2CCN(C(=O)CCCCCCCCCCNC(=O)[C@H](CCCN=C(N)N)n3cc(C[C@@H](C)CC)nn3)CC2)n1	103 µM
O=[N+]([O-])c1cc(O)c2ncccc2c1	15.9 µM
CCCCCCCCCCOC(=O)Cn1c(COc2ccccc2OC)[n+](C)c2ccccc21	20 µM
CN(C)CCCn1c(SCC(=O)N2c3ccccc3Sc3ccccc32)nc2ccccc2c1=O	47.2 µM
OCCNCc1cc(Br)ccc1OCc1ccc(Cl)cc1	34.7 µM
O=C1C(=O)c2ccccc2-c2ccccc21	19.4 µM
Cc1ccc2c(c1)sc(-c1ccc(N(C)C)cc1)[n+]2C	35.3 µM
COc1ccc(Nc2nc(NCC3CCCO3)c3ccccc3n2)c(OC)c1 (stereo not drawn)	73.2 µM
O=C(Nc1cccc(NC(=O)c2ccccc2Cl)c1)c1ccc([N+](=O)[O-])o1	100 µM
CCCCc1ccc(NC2=NCCCS2)cc1	80.5 µM
COc1ccc(C(=O)N/N=C/c2sc3ccccc3c2O)cc1	62.6 µM
CCCCn1c(=N)n(CC(=O)c2ccc(Br)s2)c2ccccc21	45.1 µM
C#CCOCCOCCOCCNc1nc(N2CCN(C(=O)CCCCCCCCCCNC(=O)[C@@H](CCSC)n3cc(CCO)nn3)CC2)nc(N2CCN(C(=O)CCCCCCCCCCNC(=O)[C@H]([C@@H](C)CC)n3cc(CCCCN=C(N)N)nn3)CC2)n1	83.1 µM
N=c1c2c(-c3ccccc3)c(-c3ccccc3)n(Cc3ccco3)c2ncn1CCCn1ccnc1	39.4 µM
O=C(Nc1ccc(Cc2ccncc2)cc1)c1ccc([N+](=O)[O-])o1	126 µM
C#CCOCCOCCOCCNc1nc(N2CCN(C(=O)[C@H](Cc3ccc(O)cc3)n3cc([C@@H](N)C(C)CC)nn3)CC2)nc(N2CCN(C(=O)[C@H](Cc3cc4ccccc4[nH]3)n3cc([C@@H](N)Cc4ccc(O)cc4)nn3)CC2)n1 (stereo partly drawn)	32.5 µM
CCN1CCN(C(=O)c2cc3ccc(OC)cc3[nH]2)CC1	34.1 µM
CNCCC=C1c2ccccc2CCc2ccccc21	117 µM
CN(C)c1nnnn1-c1ccc(Oc2ccccc2)cc1	0.27 µM
Cc1ccc(O)c(Nc2c3ccccc3nc3ccccc23)c1	50.2 µM
O=C(/C=C(\O)c1ccccc1)C(=O)NNC(=O)c1ccccc1	44.5 µM

SMILES	IC50
Cc1nn(-c2cc(N3CCNCC3)ccc2[N+](=O)[O-])c(=O)c2ccccc12	141 µM
CNC[C@H](Cc1ccccc1)NC[C@@H](Cc1cccc2ccccc12)NCCc1ccc(C)cc1	14.8 µM
NCCCCCc1nnc(SCc2ccc(Cl)cc2Cl)o1	98.3 µM
CN(C)CC/C=C1\c2ccc(F)cc2Sc2cc(F)c(Cl)cc21	19.5 µM
CN(C)CCCN(C(=O)COc1ccccc1)c1nc2ccc(Cl)cc2s1	40.5 µM
Oc1ccc(C[C@@H]2CNCCN2CCCCC2CCCCC2)cc1	37.5 µM
O=C(NNc1nc2ccc(F)cc2s1)c1cccc(F)c1	46.8 µM
N#C/C(=N\Nc1ccc([N+](=O)[O-])cc1)C(N)=S	108 µM
CCOc1ccc(-c2cc(C)[n+](CCN(CC)CC)c(-c3ccc(OCC)cc3)c2)cc1	26.4 µM
Cc1ccc(Nc2nc(NCCO)c3ccccc3n2)cc1C	34 µM
c1ccc2c(c1)C(=NC1CCCCC1)NC2=NC1CCCCC1	77.2 µM
O=C(N/N=C/c1cc(Cl)cc(Cl)c1O)c1ccncc1	33.7 µM
O=C(/C=C/c1ccccc1Cl)c1ccccc(=O)c1O	28 µM
OC(CNCCc1ccc(Cl)cc1)COc1cc(Cl)ccc1Cl (stereo not drawn)	80.6 µM
CCN1CCN(Cc2ccc(NC(=O)c3cc(NC(=O)c4cc(-c5ccc(OC)cc5)n[nH]4)cc(OC)c3)cc2C(F)(F)F)CC1	145 µM
COc1ccc(/C=N/Nc2cc(C)nc3c(C)cccc23)cc1	40.7 µM
OCCN1CCN(CCCN2c3ccccc3Sc3ccc(C(F)(F)F)cc32)CC1	75.1 µM
C#CCOCCOCCOCCNc1nc(N2CCN(C(=O)[C@H](Cc3cc4ccccc4[nH]3)n3cc([C@@H](N)CC(C)C)nn3)CC2)nc(N2CCN(C(=O)[C@H](Cc3cc4ccccc4[nH]3)n3cc([C@@H](N)CC(C)C)nn3)CC2)n1	19.1 µM
CCCCCCCCC[n+]1cccc2c3ccccc3ccc21	15.1 µM
C=C1c2c(Cl)ccc(O)c2C(O)=C2C(=O)[C@]3(O)C(O)=C(C(N)=O)C(=O)[C@@H](N(C)C)[C@@H]3[C@@H](O)C12 (stereo partly drawn)	0.24 µM
CCc1ccc2c(c1)Sc1ccccc1CC2N1CCN(C)CC1 (stereo not drawn)	31.3 µM
CC(C)(C)c1ccc(OCCCNC2CCCC2)cc1	77.7 µM
C#CCOCCOCCOCCNc1nc(N2CCN(C(=O)[C@H]([C@@H](C)CC)n3cc([C@@H](N)Cc4ccc(O)cc4)nn3)CC2)nc(N2CCN(C(=O)[C@H](Cc3cc4ccccc4[nH]3)n3cc([C@@H](N)CC(C)C)nn3)CC2)n1	27.2 µM
CCCCOCCCNc1ncnc2c1[nH]c1ccccc12	77.4 µM
Cc1ncc(CC(=O)n2cc(C(=O)c3cc(Cl)ccc3O)cn2)s1	82.9 µM

From PubChem BioAssay AID2384 (Southern Research Specialized Biocontainment Screening …, 2010)
